Test results reported in article PMC7315563, “Bioactive fluorenes. Part III: 2,7-dichloro-9H-fluorene-based thiazolidinone and azetidinone analogues as anticancer and antimicrobial against multidrug resistant strains agents” (BMC Chemistry, 2020).
Values after ≈ are worked out from the molar mass of the structure shown.

How the values were obtained:
Type in all cases: cell-based
K. pneumoniae = assay: MIC by broth microdilution method (resazurin end point); conditions: Klebsiella pneumoniae, 24 h at 37 °C
Procedure: (§1) Determination of Minimum inhibitory concentrations (MIC) of flourene derivatives was done using broth microdilution method. The procedure involved preparation of twofold dilutions of the fluorene derivatives ranging from (500–7.8 μg/mL) in sterile Mueller–Hinton broth inside the wells of 96-well microplate (Sarstedt, Germany). The inoculums of test strains prepared from fresh overnight cultures were adjusted to 0.5 McFarland standards, which equals to 1–2 × 10^8 CFU/mL for bacteria, the procedure was done according to CLSI 2012 [42]. […] For this assay the positive control agents were vancomycin (range: 0.7–50 μg/mL), gentamicin (range: 0.15–10 μg/mL) and the negative control was 1% DMSO.
(§2) For proper determination of the MIC end point resazurin dye has been used. A stock solution of resazurin sodium salt powder (Titan Biotech) was prepared at 0.02% (wt/vol) in distilled water, sterilized by filtration through a […] filter into a sterile light protected container then stored protected from light at 4 °C for up to 1 week, or at − […] for long term use, then 10–15% resazurin solution of the total volume in wells was added to each well and incubation for 1–4 h at 37 °C was done. A change in color from blue to pink indicates the growth of bacteria, and MIC was defined as the lowest concentration of the drug that prevented this change in color.

E. coli = assay: as above; conditions: Escherichia coli, 24 h at 37 °C
Procedure: as §1, §2

P. aeruginosa = assay: as above; conditions: Pseudomonas aeruginosa, 24 h at 37 °C
Procedure: as §1, §2

[1] = tested on: Klebsiella pneumoniae (K. pneumoniae), multidrug resistant clinical isolate; assay: agar well diffusion assay; conditions: 24 h, PC positive control Gentamicin 10 µg/mL
Procedure, shortened: (§3)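 Multidrug-resistant clinical isolates swabbed on Mueller–Hinton agar at about 1–5 × 10^5 CFU/mL; 0.5 cm wells received 50 μL compound at 500 μg/mL in 1% DMSO. Incubation 24 h, 37 °C for bacteria and C. albicans, 25 °C for Aspergillus; inhibition zone diameter measured in mm.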

[2] = tested on: Pseudomonas aeruginosa (P. aeruginosa), multidrug resistant clinical isolate; assay: agar well diffusion assay; conditions: 24 h, PC positive control Gentamicin 10 µg/mL
Procedure, shortened: as §3

[3] = tested on: Escherichia coli (E. coli), multidrug resistant clinical isolate; assay: agar well diffusion assay; conditions: 24 h, PC positive control Gentamicin 10 µg/mL
Procedure, shortened: as §3

[4] = tested on: Acinetobacter baumannii (A. baumannii), multidrug resistant clinical isolate; assay: agar well diffusion assay; conditions: 24 h, PC positive control Gentamicin 10 µg/mL
Procedure, shortened: as §3

MRSA = assay: MIC by broth microdilution method (resazurin end point); conditions: Staphylococcus aureus, 24 h
Procedure: as §1, §2

S. aureus = assay: as above; conditions: Staphylococcus aureus, 24 h
Procedure: as §1, §2

[5] = tested on: methicillin-resistant Staphylococcus aureus (MRSA); assay: agar well diffusion assay; conditions: Staphylococcus aureus, 24 h, read-out: Mean zone of inhibition
Procedure, shortened: as §3

[6] = tested on: Staphylococcus aureus (S. aureus), multidrug resistant clinical isolate; assay: agar well diffusion assay; conditions: Staphylococcus aureus, 24 h, read-out: Mean zone of inhibition
Procedure, shortened: as §3

[7] = tested on: Streptococcus pneumoniae (S. pneumoniae), multidrug resistant clinical isolate; assay: agar well diffusion assay; conditions: Streptococcus pneumoniae, 24 h, read-out: Mean zone of inhibition
Procedure, shortened: as §3

[8] = tested on: Candida albicans (C. albicans); assay: agar well diffusion assay; conditions: 24 h, PC positive control fluconazole 25 µg/mL
Procedure, shortened: as §3

[9] = tested on: Aspergillus flavus (A. flavus); assay: agar well diffusion assay; conditions: 24 h, PC positive control fluconazole 25 µg/mL
Procedure, shortened: as §3

[10] = tested on: Aspergillus niger (A. niger); assay: agar well diffusion assay; conditions: 24 h, PC positive control fluconazole 25 µg/mL
Procedure, shortened: as §3

`CNC(C)C1CCC(N)C(OC2C(N)CC(N)C(OC3OCC(C)(O)C(NC)C3O)C2O)O1` (stereo not drawn) [Gentamicin, reference compound] gave an MIC (K. pneumoniae) of 0.3 µg/mL (≈ 0.628 µM), an MIC (E. coli) of 0.3 µg/mL (≈ 0.628 µM) and an MIC (P. aeruginosa) of 0.3 µg/mL (≈ 0.628 µM). It also gave a zone of inhibition at 10 µg/mL [1] of 20 mm, a zone of inhibition at 10 µg/mL [2] of 30 mm and a zone of inhibition at 10 µg/mL [3] of 28 mm. For the same compound, the zone of inhibition at 10 µg/mL [4] was 20 mm.

`CN[C@H](CC(C)C)C(=O)N[C@H]1C(=O)N[C@@H](CC(N)=O)C(=O)N[C@H]2C(=O)N[C@H]3C(=O)N[C@H](C(=O)N[C@H](C(=O)O)c4cc(O)cc(O)c4-c4cc3ccc4O)[C@H](O)c3ccc(c(Cl)c3)Oc3cc2cc(c3O[C@@H]2O[C@H](CO)[C@@H](O)[C@H](O)[C@H]2O[C@H]2C[C@](C)(N)[C@H](O)[C@H](C)O2)Oc2ccc(cc2Cl)[C@H]1O` [Vancomycin, reference compound] was tested, and the MIC (MRSA) was 0.7 µg/mL (≈ 0.483 µM), the MIC (S. aureus) was 0.7 µg/mL (≈ 0.483 µM) and the zone of inhibition at 50 µg/mL [5] was 26 mm. It also gave a zone of inhibition at 50 µg/mL [6] of 28 mm and a zone of inhibition at 50 µg/mL [7] of 20 mm.

`OC(Cn1cncn1)(Cn1cncn1)c1ccc(F)cc1F` [fluconazole] was tested, and the zone of inhibition at 25 µg/mL [8] was 20 mm, the zone of inhibition at 25 µg/mL [9] was 18 mm and the zone of inhibition at 25 µg/mL [10] was 18 mm.
